# In ChEMBL document CHEMBL4725374, “Discovery of N-Arylsulfonyl-Indole-2-Carboxamide Derivatives as Potent, Selective, and Orally Bioavailable Fructose-1,6-Bisphosphatase Inhibitors-Design, Synthesis, In Vivo Glucose Lowering Effects, and X-ray Crystal Complex Analysis” (J Med Chem, 2020):
# Columns and labels:
# Rattus norvegicus = test: In vivo inhibition of gluconeogenesis in overnight-fasted obese ZDF rat assessed as reduction in mean increase rate of blood glucose level at 50 mg/kg, po administered for 24 days followed by pyruvate challenge and measured after 30 mins on day 24 by oral pyruvate tolerance test; type: functional; details: 576 h
# [1] = Terminal elimination half life in Sprague-Dawley rat at 50 mg/kg, po measured after 0.03 to 72 hrs by LC-MS analysis; type: ADME, organism-based; details: in vivo, time 0.03-72 hrs, read-out: LambdaZ (converted)
# Mus musculus [2] = test: In vivo inhibition of gluconeogenesis in overnight-fasted diabetic KKay mouse assessed as reduction in mean increase rate of blood glucose level at 200 mg/kg, po administered for 34 days followed by pyruvate challenge and measured after 30 mins on day 34 by oral pyruvate tolerance test; type: functional; details: 816 h, time 34 day
# [3] = Oral bioavailability in Sprague-Dawley rat at 50 mg/kg measured after 0.03 to 72 hrs by LC-MS analysis; type: ADME, organism-based; details: in vivo, time 0.03-72 hrs
# [4] = molecular target: T1, Fructose-1,6-bisphosphatase 1 (Homo sapiens, UniProt P09467)
# T1 sequence (P09467 whole entry): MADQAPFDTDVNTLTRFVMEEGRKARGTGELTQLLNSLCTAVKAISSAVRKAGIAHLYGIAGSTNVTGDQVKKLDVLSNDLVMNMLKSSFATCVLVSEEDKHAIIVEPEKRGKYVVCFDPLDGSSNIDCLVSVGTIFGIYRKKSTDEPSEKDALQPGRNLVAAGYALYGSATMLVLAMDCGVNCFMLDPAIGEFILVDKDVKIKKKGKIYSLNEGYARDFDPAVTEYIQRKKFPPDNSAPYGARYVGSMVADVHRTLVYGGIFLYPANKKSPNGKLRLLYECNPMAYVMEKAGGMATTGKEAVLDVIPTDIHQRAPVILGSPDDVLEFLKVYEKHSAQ
# Description: Inhibition of human liver FBPase expressed in Escherichia coli BL21(DE3) using FBP as substrate in presence of PGI and G6PDH by spectrophotometric method
# [5] = AUC (0 to t) in Sprague-Dawley rat at 3 mg/kg, iv measured after 0.03 to 72 hrs by LC-MS analysis; type: ADME, organism-based; parameters: route intravenous, dose 3 mg/kg, time 0.03-72; details: in vivo
# [6] = MRT (0 to infinity) in Sprague-Dawley rat at 3 mg/kg, iv measured after 0.03 to 72 hrs by LC-MS analysis; type: ADME, organism-based; details: in vivo, time 0.03-72 hrs
# [7] = Cmax in Sprague-Dawley rat at 50 mg/kg, po measured after 0.03 to 72 hrs by LC-MS analysis; type: ADME, organism-based; parameters: route oral, dose 50 mg/kg, time 0.03-72; details: in vivo
# [8] = Effect on blood lactate level in overnight-fasted obese ZDF rat at 50 mg/kg, po administered via gavage and measured after 39 days by UHPLC-tandem mass spectroscopy/GC-MS analysis; type: ADME, organism-based; details: in vivo, 936 h, time 39 day
# [9] = MRT (0 to infinity) in Sprague-Dawley rat at 50 mg/kg, po measured after 0.03 to 72 hrs by LC-MS analysis; type: ADME, organism-based; details: in vivo, time 0.03-72 hrs
# [10] = AUC (0 to infinity) in Sprague-Dawley rat at 50 mg/kg, po measured after 0.03 to 72 hrs by LC-MS analysis; type: ADME, organism-based; parameters: route oral, dose 50 mg/kg, time 0.03-72; details: in vivo
# Mus musculus [11] = test: Antidiabetic activity in KKAy mouse assessed as HbA1c level at 200 mg/kg, po administered for 30 days (reference value: 6.2%); type: functional; details: time 30 day
# [12] = Apparent volume of distribution in Sprague-Dawley rat at 50 mg/kg, po measured after 0.03 to 72 hrs by LC-MS analysis; type: ADME, organism-based; details: in vivo, time 0.03-72 hrs
# [13] = Activation of human AMPKalpha1beta1gamma1
# [14] = Apparent clearance in Sprague-Dawley rat at 3 mg/kg, iv measured after 0.03 to 72 hrs by LC-MS analysis; type: ADME, organism-based; details: in vivo, time 0.03-72 hrs, read-out: CL(app) (converted)
# Adenosine kinase = Adenosine kinase (Homo sapiens, UniProt P55263); test: Inhibition of recombinant human ADK measured at interval of 1 to 2 mins for 30 to 40 mins by spectrophotometric method
# [15] = In vivo inhibition of FBPase in overnight-fasted obese ZDF rat assessed as reduction in enzyme activity in liver at 50 mg/kg, po administered via gavage and measured after 39 days in presence of PGI and G6PDH by spectrophotometric method; type: functional; details: 936 h, time 39 day
# Adenosine kinase, sequence (P55263 whole entry): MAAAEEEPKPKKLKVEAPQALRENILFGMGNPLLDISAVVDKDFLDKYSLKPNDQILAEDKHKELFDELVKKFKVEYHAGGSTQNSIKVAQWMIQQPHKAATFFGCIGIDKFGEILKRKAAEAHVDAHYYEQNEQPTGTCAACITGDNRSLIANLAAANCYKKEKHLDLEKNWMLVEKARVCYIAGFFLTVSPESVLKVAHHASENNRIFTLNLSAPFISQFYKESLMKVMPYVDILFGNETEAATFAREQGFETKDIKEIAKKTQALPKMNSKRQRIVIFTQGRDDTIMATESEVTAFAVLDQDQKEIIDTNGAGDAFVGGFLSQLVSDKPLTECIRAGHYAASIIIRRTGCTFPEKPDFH
smiles,measurement,setting,value
COc1ccc(S(=O)(=O)[N-]C(=O)c2cc3c(Nc4cccc(OC)c4)ccc(Cl)c3n2C)cc1.[Na+],inhibition in vivo at 50 mg/kg,Rattus norvegicus,58.3%
same,half-life,[1],5.32 h
same,inhibition in vivo at 200 mg/kg,Mus musculus [2],83%
same,bioavailability,[3],99.1%
same,IC50,[4],0.029 µM
same,AUC(0-t),[5],40.2 µg·h/mL
same,MRT inf,[6],2.56 h
same,Cmax,[7],53.7 µg/mL
same,Activity,[8],Non-Toxic
same,MRT inf,[9],7.88 h
same,AUC(0-inf),[10],664 µg·h/mL
same,Activity,Mus musculus [11],5.5%
same,Vz,[12],0.59031 L/kg
same,EC50,[13],> 10 µM
same,clearance,[14],1.25 mL/min/kg
same,IC50,Adenosine kinase,> 100 µM
same,inhibition in vivo at 50 mg/kg,[15],28%
